In brackets after ≈: the same amount, converted by molar mass. Where two headings read alike, the source gives them in different places.
Tests used:
Assay type in all cases: cell-based
S. typhimurium LT-2 = assay: MIC against S. typhimurium LT-2; conditions: Salmonella enterica
Text: (§1) The compounds (I) of this invention are clearly different from various cephem derivatives described in Japanese Patent Pre-publication ("Kokai") No. 25551/78 and U.S. Pat. No. 4,226,866 in respect of the presence of a lower alkyl group at 2-position of the cephem nucleus. […] Minimum inhibitory concentrations (M.I.C.) (μg/ml) of the compounds (I) to various bacteria are set out in Table 1 below.

Staph. aureus Smith = assay: MIC against Staph. aureus Smith; conditions: Staphylococcus aureus
Text: as §1

Pr. vulgaris GN76 = assay: MIC against Pr. vulgaris GN76; conditions: Proteus vulgaris
Text: as §1

C. freundii CN346 = assay: MIC against C. freundii CN346; conditions: Citrobacter freundii
Text: as §1

Ent. cloacae G-0006 = assay: MIC against Ent. cloacae G-0006; conditions: Enterobacter cloacae, G0006
Text: as §1

Ps. aeruginosa = assay: MIC against Ps. aeruginosa; conditions: Pseudomonas aeruginosa
Text: as §1

Pr. rettgeri GN624 = assay: MIC against Pr. rettgeri GN624; conditions: Providencia rettgeri
Text: as §1

Staph. aureus 209P JC-1 = assay: MIC against Staph. aureus 209P JC-1; conditions: Staphylococcus aureus
Text: as §1

Pr. mirabilis GN79 = assay: MIC against Pr. mirabilis GN79; conditions: Proteus mirabilis
Text: as §1

Kl. pneumoniae PCI 602 = assay: MIC against Kl. pneumoniae PCI 602; conditions: Klebsiella pneumoniae, PCI602
Text: as §1

Ser. marcescens No. 2 = assay: MIC against Ser. marcescens No. 2; conditions: Serratia marcescens
Text: as §1

[1] = S. typhimurium LT-2, read-out: MIC
[2] = Pr. vulgaris GN76, read-out: MIC
[3] = C. freundii CN346, read-out: MIC
[4] = Ser. marcescens No. 2, read-out: MIC

Row | Compound | MIC (S. typhimurium LT-2; [1]) [µg/mL] | MIC (Staph. aureus Smith) [µg/mL] | MIC (Pr. vulgaris GN76; [2]) [µg/mL] | MIC (C. freundii CN346; [3]) [µg/mL] | MIC (Ent. cloacae G-0006) [µg/mL] | MIC (Ps. aeruginosa) [µg/mL] | MIC (Pr. rettgeri GN624) [µg/mL] | MIC (Staph. aureus 209P JC-1) [µg/mL] | MIC (Pr. mirabilis GN79) [µg/mL] | MIC (Kl. pneumoniae PCI 602) [µg/mL] | MIC (Ser. marcescens No. 2; [4]) [µg/mL] | MIC (S. typhimurium LT-2; TYPHIMURIUM) [µg/mL] | MIC (C. freundii CN346; CN346) [µg/mL] | MIC (Pr. vulgaris GN76; GN76) [µg/mL] | MIC (Ser. marcescens No. 2; NO.2) [µg/mL]
1 | CO[C@@]1(NC(=O)C(C(=O)O)c2ccsc2)C(=O)N2C(C(=O)O)=C(CSc3nnnn3C)[C@H](C)O[C@@H]21 (stereo partly drawn) [compound 7, 7β-[2-(3-Thienyl)-2-carboxyacetamido]-7α-methoxy-2β-methyl-3-(1-methyl-1H--tetrazole-5-yl)thiomethyl-1-oxa-1-dethia-3-cephem-4-carboxylic acid] | ≤ 0.025 | 1.56 (≈ 2.97 µM) | 0.1 (≈ 0.191 µM) | 1.56 (≈ 2.97 µM) | 3.13 (≈ 5.97 µM) | 25 (≈ 47.7 µM) | 0.05 (≈ 0.0953 µM) | 1.56 (≈ 2.97 µM) | 0.2 (≈ 0.381 µM) | 0.05 (≈ 0.0953 µM) | 0.2 (≈ 0.381 µM) | – | – | – | –
2 | C[C@H]1O[C@@H]2[C@H](NC(=O)Cc3cccs3)C(=O)N2C(C(=O)O)=C1CSc1nnnn1C [compound 1, 7-(2-Thienylacetamido)-2α-methyl-3-(1-methyl-1H--tetrazole-5-yl)thiomethyl-1-oxa-1-dethia-3-cephem-4-carboxylic acid] | 0.025 (≈ 0.0555 µM) | 0.2 (≈ 0.444 µM) | 0.1 (≈ 0.222 µM) | 3.13 (≈ 6.95 µM) | 25 (≈ 55.5 µM) | 12.5 (≈ 27.7 µM) | 0.05 (≈ 0.111 µM) | 0.2 (≈ 0.444 µM) | 0.1 (≈ 0.222 µM) | 0.1 (≈ 0.222 µM) | 0.1 (≈ 0.222 µM) | – | – | – | –
3 | CO[C@@]1(NC(=O)Cc2cccs2)C(=O)N2C(C(=O)O)=C(CSc3nnnn3C)[C@@H](C)O[C@@H]21 [compound 3, 7β-(2-Thienylacetamido)-7α-methoxy-2α-methyl-3-(1-methyl-1H--tetrazole-5-yl)thiomethyl-1-oxa-1-dethia-3-cephem-4-carboxylic acid] | – | 0.39 (≈ 0.812 µM) | 12.5 (≈ 26 µM) | > 100 | > 100 | > 100 | > 100 | 0.39 (≈ 0.812 µM) | > 100 | 25 (≈ 52 µM) | 12.5 (≈ 26 µM) | 1.56 (≈ 3.25 µM) | – | – | –
4 | CO[C@@]1(NC(=O)C(C(=O)O)c2cccs2)C(=O)N2C(C(=O)O)=C(CSc3nnnn3C)[C@H](C)O[C@@H]21 (stereo partly drawn) [compound 6, 7β-[2-(2-Thienyl)-2-carboxyacetamido]-7α-methoxy-2β-methyl-3-(1-methyl-1H--tetrazole-5-yl)thiomethyl-1-oxa-1-dethia-3-cephem-4-carboxylic acid] | ≤ 0.025 | 0.78 (≈ 1.49 µM) | 0.1 (≈ 0.191 µM) | – | 6.25 (≈ 11.9 µM) | 25 (≈ 47.7 µM) | ≤ 0.025 | 0.39 (≈ 0.744 µM) | 0.1 (≈ 0.191 µM) | 1.56 (≈ 2.97 µM) | 0.2 (≈ 0.381 µM) | – | 1.56 (≈ 2.97 µM) | – | –
5 | CO[C@@]1(NC(=O)C(C(=O)O)c2cccs2)C(=O)N2C(C(=O)O)=C(CSc3nnnn3C)[C@@H](C)O[C@@H]21 (stereo partly drawn) [compound 5, 7β-[2-(2-Thienyl)-2-carboxyacetamido]-7α-methoxy-2α-methyl-3-(1-methyl-1H--tetrazole-5-yl)thiomethyl-1-oxa-1-dethia-3-cephem-4-carboxylic acid] | 0.1 (≈ 0.191 µM) | 0.78 (≈ 1.49 µM) | 0.39 (≈ 0.744 µM) | 25 (≈ 47.7 µM) | 100 (≈ 191 µM) | 100 (≈ 191 µM) | 3.13 (≈ 5.97 µM) | 0.78 (≈ 1.49 µM) | 0.78 (≈ 1.49 µM) | 1.56 (≈ 2.97 µM) | 0.78 (≈ 1.49 µM) | – | – | – | –
6 | C[C@@H]1O[C@@H]2[C@H](NC(=O)Cc3cccs3)C(=O)N2C(C(=O)O)=C1CSc1nnnn1C [compound 2, 7-(2-Thienylacetamido)-2β-methyl-3-(1-methyl-1H--tetrazole-5-yl)thiomethyl-1-oxa-1-dethia-3-cephem-4-carboxylic acid] | 0.1 (≈ 0.222 µM) | 0.05 (≈ 0.111 µM) | – | 100 (≈ 222 µM) | 100 (≈ 222 µM) | > 100 | 12.5 (≈ 27.7 µM) | 0.025 (≈ 0.0555 µM) | 12.5 (≈ 27.7 µM) | 1.56 (≈ 3.46 µM) | 6.25 (≈ 13.9 µM) | – | – | 1.56 (≈ 3.46 µM) | –
7 | CO[C@@]1(NC(=O)Cc2cccs2)C(=O)N2C(C(=O)O)=C(CSc3nnnn3C)[C@H](C)O[C@@H]21 [compound 4, 7β-(2-Thienylacetamido)-7α-methoxy-2β-methyl-3-(1-methyl-1H--tetrazole-5-yl)thiomethyl-1-oxa-1-dethia-3-cephem-4-carboxylic acid] | 0.05 (≈ 0.104 µM) | 0.2 (≈ 0.416 µM) | 0.39 (≈ 0.812 µM) | 100 (≈ 208 µM) | 100 (≈ 208 µM) | > 100 | 25 (≈ 52 µM) | 0.2 (≈ 0.416 µM) | 12.5 (≈ 26 µM) | 1.56 (≈ 3.25 µM) | – | – | – | – | 1.56 (≈ 3.25 µM)

Reference: patent US4534898A, “1-Oxa-1-dethia-cephalosporin derivatives” (Merck & Co., Inc., priority 1982, dated 1985)
